What was measured:
Settings in all cases: 48 h
P12-Ichikawa [1] = test: AUC of viability dose-response curve (% viability x log10 dose units); higher = less sensitive
In short: (§1)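 Leukemia cells adapted to each medium (500 or 1000 cells/well, 1536-well plates) were exposed to library compounds in DMSO for 48 h at 37°C at 11 threefold doses, 47 μM to 0.79 nM. Luminescence by CellTiter-Glo One was normalised per plate to DMSO and cell-free wells, then fitted with a four-parameter log-logistic curve on log10 dose. Curves above full viability were scaled and quality-control failures removed before area under the curve was integrated by trapezoidal rule.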

SEM cells [2] = test: as above
In short: as §1

NOMO1 [3] = test: as above
In short: as §1

P12-Ichikawa [4] = test: cell viability relative to DMSO control; higher = less cytotoxic
In short: (§2)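 Library compounds in DMSO were pin-dosed into 1536-well plates (5 μl) holding NOMO1 or SEM (500 cells/well) or P12-Ichikawa (1000 cells/well) leukemia cells, across an 11-point threefold series of 47 μM to 0.79 nM. Each cell line had been adapted for at least four passages in each medium. CellTiter-Glo One luminescence was read after 48 h at 37°C. Viability is the per-plate percentage relative to DMSO wells, with cell-free wells as background.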

SEM cells [5] = test: as above
In short: as §2

NOMO1 [6] = test: as above
In short: as §2

N=C(NCCCCCCNC(=N)NC(=N)Nc1ccc(Cl)cc1)NC(=N)Nc1ccc(Cl)cc1
AUC of viability dose-response curve
Settings	NOMO1 [3]	P12-Ichikawa [1]	SEM cells [2]
HPLM + 10% dialyzed FBS	454	452	453
RPMI 5 mM glucose + 10% FBS	409	416	468
RPMI 5 mM glucose + 10% dialyzed FBS	440	419	420

cell viability [%]
Settings	NOMO1 [6]	P12-Ichikawa [4]	SEM cells [5]
HPLM + 10% dialyzed FBS, 0.000781 µM	82	89.4	95.6
HPLM + 10% dialyzed FBS, 0.00234 µM	88.2	95.2	104
HPLM + 10% dialyzed FBS, 0.00702 µM	100	93	95.6
HPLM + 10% dialyzed FBS, 0.0211 µM	90.4	95.7	95.2
HPLM + 10% dialyzed FBS, 0.0632 µM	106	92.6	101
HPLM + 10% dialyzed FBS, 0.19 µM	111	93.3	104
HPLM + 10% dialyzed FBS, 0.569 µM	105	95.2	104
HPLM + 10% dialyzed FBS, 1.71 µM	113	101	93.9
HPLM + 10% dialyzed FBS, 5.12 µM	89	92.9	92.2
HPLM + 10% dialyzed FBS, 15.4 µM	87.6	97.9	86.8
HPLM + 10% dialyzed FBS, 46.1 µM	56.5	93.8	52
RPMI 5 mM glucose + 10% FBS, 0.000781 µM	75.4	83.8	98.4
RPMI 5 mM glucose + 10% FBS, 0.00234 µM	92.9	82.8	102
RPMI 5 mM glucose + 10% FBS, 0.00702 µM	79.1	92.1	104
RPMI 5 mM glucose + 10% FBS, 0.0211 µM	96.3	90.1	97.5
RPMI 5 mM glucose + 10% FBS, 0.0632 µM	96.1	93.6	93.4
RPMI 5 mM glucose + 10% FBS, 0.19 µM	85.5	97.6	107
RPMI 5 mM glucose + 10% FBS, 0.569 µM	93.2	91.4	96.4
RPMI 5 mM glucose + 10% FBS, 1.71 µM	88.5	80.2	104
RPMI 5 mM glucose + 10% FBS, 5.12 µM	91.1	95.1	107
RPMI 5 mM glucose + 10% FBS, 15.4 µM	87.4	81.2	97.6
RPMI 5 mM glucose + 10% FBS, 46.1 µM	30.9	56.3	68
RPMI 5 mM glucose + 10% dialyzed FBS, 0.000781 µM	79.5	85.4	83.6
RPMI 5 mM glucose + 10% dialyzed FBS, 0.00234 µM	88.9	85.3	92.9
RPMI 5 mM glucose + 10% dialyzed FBS, 0.00702 µM	90.6	90.4	93.4
RPMI 5 mM glucose + 10% dialyzed FBS, 0.0211 µM	90.5	86.9	87.9
RPMI 5 mM glucose + 10% dialyzed FBS, 0.0632 µM	105	94.1	89.3
RPMI 5 mM glucose + 10% dialyzed FBS, 0.19 µM	103	95.5	96.7
RPMI 5 mM glucose + 10% dialyzed FBS, 0.569 µM	101	87.5	90.9
RPMI 5 mM glucose + 10% dialyzed FBS, 1.71 µM	105	88.1	85.8
RPMI 5 mM glucose + 10% dialyzed FBS, 5.12 µM	100	86	103
RPMI 5 mM glucose + 10% dialyzed FBS, 15.4 µM	85.6	89.3	80.9
RPMI 5 mM glucose + 10% dialyzed FBS, 46.1 µM	41.5	70.3	42.1

Nc1ncnc2c1c(-c1cnc3[nH]ccc3c1)nn2C1CCCC1
AUC of viability dose-response curve
Settings	NOMO1 [3]	P12-Ichikawa [1]	SEM cells [2]
HPLM + 10% dialyzed FBS	364	379	356
RPMI 5 mM glucose + 10% FBS	388	343	306
RPMI 5 mM glucose + 10% dialyzed FBS	397	326	360

cell viability [%]
Settings	NOMO1 [6]	P12-Ichikawa [4]	SEM cells [5]
HPLM + 10% dialyzed FBS, 0.000781 µM	–	117	111
HPLM + 10% dialyzed FBS, 0.00234 µM	–	121	113
HPLM + 10% dialyzed FBS, 0.00702 µM	–	112	127
HPLM + 10% dialyzed FBS, 0.0211 µM	–	111	122
HPLM + 10% dialyzed FBS, 0.0632 µM	–	103	113
HPLM + 10% dialyzed FBS, 0.19 µM	–	106	105
HPLM + 10% dialyzed FBS, 0.569 µM	–	95.7	95.2
HPLM + 10% dialyzed FBS, 1.71 µM	–	81.3	69.6
HPLM + 10% dialyzed FBS, 5.12 µM	–	71.2	51.1
HPLM + 10% dialyzed FBS, 15.4 µM	–	52.2	36.2
HPLM + 10% dialyzed FBS, 46.1 µM	–	28.7	11
RPMI 5 mM glucose + 10% FBS, 0.000781 µM	108	122	81.9
RPMI 5 mM glucose + 10% FBS, 0.00234 µM	120	118	76.3
RPMI 5 mM glucose + 10% FBS, 0.00702 µM	141	122	85.1
RPMI 5 mM glucose + 10% FBS, 0.0211 µM	135	117	95.4
RPMI 5 mM glucose + 10% FBS, 0.0632 µM	119	106	94.8
RPMI 5 mM glucose + 10% FBS, 0.19 µM	114	96.5	73.6
RPMI 5 mM glucose + 10% FBS, 0.569 µM	112	90.1	68.8
RPMI 5 mM glucose + 10% FBS, 1.71 µM	93.5	63.5	49.2
RPMI 5 mM glucose + 10% FBS, 5.12 µM	66.7	53.7	33.8
RPMI 5 mM glucose + 10% FBS, 15.4 µM	54.4	40.3	24.7
RPMI 5 mM glucose + 10% FBS, 46.1 µM	45.4	26.2	6.03
RPMI 5 mM glucose + 10% dialyzed FBS, 0.000781 µM	106	–	123
RPMI 5 mM glucose + 10% dialyzed FBS, 0.00234 µM	119	–	120
RPMI 5 mM glucose + 10% dialyzed FBS, 0.00702 µM	103	–	125
RPMI 5 mM glucose + 10% dialyzed FBS, 0.0211 µM	109	–	114
RPMI 5 mM glucose + 10% dialyzed FBS, 0.0632 µM	131	–	129
RPMI 5 mM glucose + 10% dialyzed FBS, 0.19 µM	100	–	112
RPMI 5 mM glucose + 10% dialyzed FBS, 0.569 µM	104	–	99.6
RPMI 5 mM glucose + 10% dialyzed FBS, 1.71 µM	81.7	–	73.8
RPMI 5 mM glucose + 10% dialyzed FBS, 5.12 µM	61.8	–	59.5
RPMI 5 mM glucose + 10% dialyzed FBS, 15.4 µM	52.8	–	42.6
RPMI 5 mM glucose + 10% dialyzed FBS, 46.1 µM	45.8	–	6.97

COC1=C2OC(=O)\C=C/C2=CC3=C1OC=C3
AUC of viability dose-response curve
Settings	NOMO1 [3]	P12-Ichikawa [1]	SEM cells [2]
HPLM + 10% dialyzed FBS	465	447	459
RPMI 5 mM glucose + 10% FBS	451	449	458
RPMI 5 mM glucose + 10% dialyzed FBS	466	426	456

cell viability [%]
Settings	NOMO1 [6]	P12-Ichikawa [4]	SEM cells [5]
HPLM + 10% dialyzed FBS, 0.000781 µM	117	118	121
HPLM + 10% dialyzed FBS, 0.00234 µM	116	113	117
HPLM + 10% dialyzed FBS, 0.00702 µM	120	115	129
HPLM + 10% dialyzed FBS, 0.0211 µM	116	116	126
HPLM + 10% dialyzed FBS, 0.0632 µM	116	112	124
HPLM + 10% dialyzed FBS, 0.19 µM	123	107	123
HPLM + 10% dialyzed FBS, 0.569 µM	107	108	121
HPLM + 10% dialyzed FBS, 1.71 µM	118	102	115
HPLM + 10% dialyzed FBS, 5.12 µM	109	99.7	116
HPLM + 10% dialyzed FBS, 15.4 µM	101	61.3	107
HPLM + 10% dialyzed FBS, 46.1 µM	116	84.6	93.4
RPMI 5 mM glucose + 10% FBS, 0.000781 µM	108	118	–
RPMI 5 mM glucose + 10% FBS, 0.00234 µM	115	117	–
RPMI 5 mM glucose + 10% FBS, 0.00702 µM	115	117	–
RPMI 5 mM glucose + 10% FBS, 0.0211 µM	117	111	–
RPMI 5 mM glucose + 10% FBS, 0.0632 µM	121	109	–
RPMI 5 mM glucose + 10% FBS, 0.19 µM	113	110	–
RPMI 5 mM glucose + 10% FBS, 0.569 µM	96.5	113	–
RPMI 5 mM glucose + 10% FBS, 1.71 µM	104	110	–
RPMI 5 mM glucose + 10% FBS, 5.12 µM	108	109	–
RPMI 5 mM glucose + 10% FBS, 15.4 µM	105	55.6	–
RPMI 5 mM glucose + 10% FBS, 46.1 µM	97.3	86.8	–
RPMI 5 mM glucose + 10% dialyzed FBS, 0.000781 µM	104	115	123
RPMI 5 mM glucose + 10% dialyzed FBS, 0.00234 µM	109	117	132
RPMI 5 mM glucose + 10% dialyzed FBS, 0.00702 µM	115	119	124
RPMI 5 mM glucose + 10% dialyzed FBS, 0.0211 µM	117	125	110
RPMI 5 mM glucose + 10% dialyzed FBS, 0.0632 µM	114	108	123
RPMI 5 mM glucose + 10% dialyzed FBS, 0.19 µM	113	109	133
RPMI 5 mM glucose + 10% dialyzed FBS, 0.569 µM	113	105	128
RPMI 5 mM glucose + 10% dialyzed FBS, 1.71 µM	108	100	109
RPMI 5 mM glucose + 10% dialyzed FBS, 5.12 µM	104	101	115
RPMI 5 mM glucose + 10% dialyzed FBS, 15.4 µM	101	60.2	108
RPMI 5 mM glucose + 10% dialyzed FBS, 46.1 µM	107	74.4	93.7
